Measurements taken from patent US6635670B2, “sPLA2 inhibitors” (Eli Lilly and Company, priority 1999, dated 2003).
Where two headings read alike, the source gives them in different places.

Target: T1, recombinant human secreted phospholipase A2 (Homo sapiens, UniProt P14555)
T1 sequence (P14555 21-144): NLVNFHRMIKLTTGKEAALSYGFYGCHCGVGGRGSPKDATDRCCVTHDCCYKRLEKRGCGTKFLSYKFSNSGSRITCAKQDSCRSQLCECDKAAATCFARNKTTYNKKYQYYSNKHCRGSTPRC
Assay: chromogenic assay for inhibitors of recombinant human secreted phospholipase A2
Format: biochemical
Excerpt: The following chromogenic assay procedure was used to identify and evaluate inhibitors of recombinant human secreted phospholipase A2. The assay described herein has been adapted for high volume screening using 96 well microtiter plates. A general description of this assay method is found in the article, “Analysis of Human Synovial Fluid Phospholipase A2 on Short Chain Phosphatidylcholine-Mixed Micelles: Development of a Spectrophotometric Assay Suitable for a Microtiterplate Reader”, by Laure J. Reynolds, Lori L. Hughes, and Edward A Dennis, Analytical Biochemistry, 204, pp. 190-197, 1992 (the disclosure of which is incorporated herein by reference):
REACTION BUFFER —CaCl2. 2H2O (1.47 g/L) KCl (7.455 g/L) Bovine Serum Albumin (fatty acid free) (1 g/L) (Sigma A-7030, product of Sigma Chemical Co., St. Louis Mo., USA) TRIS HCl (3.94 g/L) pH 7.5 (adjust with NaOH)
ENZYME BUFFER-0.05 NaOAc.3H2O, pH 4.5 0.2 NaCl Adjust pH to 4.5 with acetic acid DTNB-5,5′-dithiobis-2-nitrobenzoic acid
RACEMIC DIHEPTANOYL THIO-PC racemic 1,2-bis(heptanoylthio)-1,2-dideoxy-sn-glycero-3-phosphorylcholine TRITON X-100™ prepare at 6.249 mg/ml in reaction buffer to equal […].
A measured volume of racemic dipheptanoyl thio PC supplied in chloroform at a concentration of 100 mg/ml is taken to dryness and redissolved in 10 millimolar
TRITON X-100™ nonionic detergent aqueous solution.
Reaction Buffer is added to the solution, then DTNB to give the Reaction Mixture.
The reaction mixture thus obtained contains 1 mM diheptanoly thio-PC substrate, 0.29 mm Triton X-100™ detergent, and 0.12 mm DTMB in a buffered aqueous solution at pH 7.5.
1. Add 0.2 ml reaction mixture to all wells;
2. Add 10 ul test compound (or solvent blank) to appropriate wells, mix 20 seconds;
3. Add 50 nanograms of sPLA2 (10 microliters) to appropriate wells;
4. Incubate plate at 40° C. for 30 minutes;
5. Read absorbance of wells at 405 nanometers with an automatic plate reader.
All compounds were tested in triplicate. Typically, compounds were tested at a final concentration of 5 ug/ml. […] Lack of color development at 405 nanometers evidenced inhibition. Compounds initially found to be active were reassayed to confirm their activity and, if sufficiently active, IC50 values were determined. […] In all cases, % inhibition measured at 405 nanometers generated by enzyme reactions containing inhibitors relative to the uninhibited control reactions was determined. Each sample was titrated in triplicate and result values were averaged for plotting and calculation of IC50 values. IC50 were determined by plotting log concentration versus inhibition values in the range from 10-90% inhibition.

[1] = diheptanoyl thio-PC substrate, pH 7.5, 40° C. for 30 minutes, absorbance at 405 nanometers, read-out: Inhibition of human secreted PLA2 IC50 ± mean deviation (3-4 tests)

SMILES | IC50 [nM] | activity in inhibiting SPLA2 (statement in words) | IC50 [1] [nM]
CCc1c(C(=O)C(N)=O)c2c(OCC(=O)OC)cccc2n1Cc1ccccc1 [Compound 1, [[3-(2-Amino-1,2-dioxoethyl)-2-ethyl-1-(phenylmethyl)-1H-indol-4-yl]oxy]acetic acid methyl ester] | 49 | highly active | –
CCc1c(C(=O)C(N)=O)c2c(OCC(=O)NCC(=O)OC)cccc2n1Cc1ccccc1 [Compound 2A, N-[2-[[3-(Aminooxoacetyl)-2-ethyl-1-(phenylmethyl)-1H-indol-4-yl]oxy]acetyl]glycine Methyl Ester] | – | – | 529
CCc1c(C(=O)C(N)=O)c2c(OCC(=O)N[C@@H](C)C(=O)OC)cccc2n1Cc1ccccc1 [Compound 2B, N-[2-[[3-(Aminooxoacetyl)-2-ethyl-1-(phenylmethyl)-1H-indol-4-yl]oxy]acetyl]-L-alanine Methyl Ester] | – | – | 533
CCc1c(C(=O)C(N)=O)c2c(OCC(=O)N[C@@H](CC(C)C)C(=O)OC)cccc2n1Cc1ccccc1 [Compound 2C, N-[2-[[3-(Aminooxoacetyl)-2-ethyl-1-(phenylmethyl)-1H-indol-4-yl]oxy]acetyl]-L-leucine Methyl Ester] | – | – | 82
CCc1c(C(=O)C(N)=O)c2c(OCC(=O)N[C@@H](CC(=O)OC)C(=O)OC)cccc2n1Cc1ccccc1 [Compound 2D, N-[2-[[3-(Aminooxoacetyl)-2-ethyl-1-(phenylmethyl)-1H-indol-4-yl]oxy]acetyl]-L-aspartic Acid Dimethyl Ester] | – | – | 874
CCc1c(C(=O)C(N)=O)c2c(OCC(=O)N[C@@H](Cc3ccccc3)C(=O)OC)cccc2n1Cc1ccccc1 [Compound 2E, N-[2-[[3-(Aminooxoacetyl)-2-ethyl-1-(phenylmethyl)-1H-indol-4-yl]oxy]acetyl]-L-phenylalanine Methyl Ester] | – | – | 666
CCc1c(C(=O)C(N)=O)c2c(OCC(=O)NC(C(=O)OC)C(=O)OC)cccc2n1Cc1ccccc1 [Compound 2F, [2-[[3-(Aminooxoacetyl)-2-ethyl-1-(phenylmethyl)-1H-indol-4-yl]oxy]acetamido]malonic Acid Dimethyl Ester] | – | – | 698
CCc1c(C(=O)C(N)=O)c2c(OCC(=O)N[C@H](C(=O)OC)C(C)C)cccc2n1Cc1ccccc1 [Compound 2G, N-[2-[[3-(Aminooxoacetyl)-2-ethyl-1-(phenylmethyl)-1H-indol-4-yl]oxy]acetyl]-L-valine Methyl Ester] | – | – | 283
CCc1c(C(=O)C(N)=O)c2c(OCC(=O)N[C@H](C(=O)OC)[C@@H](C)CC)cccc2n1Cc1ccccc1 [Compound 2H, N-[2-[[3-(Aminooxoacetyl)-2-ethyl-1-(phenylmethyl)-1H-indol-4-yl]oxy]acetyl]-L-isoleucine Methyl Ester] | – | – | 166
CCc1c(C(=O)C(N)=O)c2c(OCC(=O)NCC(=O)O)cccc2n1Cc1ccccc1 [Compound 3A, N-[2-[[3-(Aminooxoacetyl)-2-ethyl-1-(phenylmethyl)-1H-indol-4-yl]oxy]acetyl]glycine] | – | – | 71
CCc1c(C(=O)C(N)=O)c2c(OCC(=O)N[C@@H](C)C(=O)O)cccc2n1Cc1ccccc1 [Compound 3B, N-[2-[[3-(Aminooxoacetyl)-2-ethyl-1-(phenylmethyl)-1H-indol-4-yl]oxy]acetyl]-L-alanine] | – | – | 59
CCc1c(C(=O)C(N)=O)c2c(OCC(=O)N[C@@H](CC(C)C)C(=O)O)cccc2n1Cc1ccccc1 [Compound 3C, N-[2-[[3-(Aminooxoacetyl)-2-ethyl-1-(phenylmethyl)-1H-indol-4-yl]oxy]acetyl]-L-leucine] | – | – | 28
CCc1c(C(=O)C(N)=O)c2c(OCC(=O)N[C@@H](CC(=O)O)C(=O)O)cccc2n1Cc1ccccc1 [Compound 3D, N-[2-[[3-(Aminooxoacetyl)-2-ethyl-1-(phenylmethyl)-1H-indol-4-yl]oxy]acetyl]-L-aspartic Acid] | – | – | 132
CCc1c(C(=O)C(N)=O)c2c(OCC(=O)N[C@@H](Cc3ccccc3)C(=O)O)cccc2n1Cc1ccccc1 [Compound 3E, N-[2-[[3-(Aminooxoacetyl)-2-ethyl-1-(phenylmethyl)-1H-indol-4-yl]oxy]acetyl]-L-phenylalanine] | – | – | 64
CCc1c(C(=O)C(N)=O)c2c(OCC(=O)NC(C(=O)O)C(=O)O)cccc2n1Cc1ccccc1 [Compound 3F, [2-[[3-(Aminooxoacetyl)-2-ethyl-1-(phenylmethyl)-1H-indol-4-yl]oxy]acetamido]malonic Acid] | – | – | 44.7
CCc1c(C(=O)C(N)=O)c2c(OCC(=O)N[C@H](C(=O)O)C(C)C)cccc2n1Cc1ccccc1 [Compound 3G, N-[2-[[3-(Aminooxoacetyl)-2-ethyl-1-(phenylmethyl)-1H-indol-4-yl]oxy]acetyl]-L-valine] | – | – | 36.4
CCc1c(C(=O)C(N)=O)c2c(OCC(=O)N[C@H](C(=O)O)[C@@H](C)CC)cccc2n1Cc1ccccc1 [Compound 3H, N-[2-[[3-(Aminooxoacetyl)-2-ethyl-1-(phenylmethyl)-1H-indol-4-yl]oxy]acetyl]-L-isoleucine] | – | – | 25.1
